Reference: US7687546B2, “Quaternary ammonium compound, process for producing the same, therapeutic agent for cerebrovascular disorder, and therapeutic agent for heart disease” (Activus Pharma Co., Ltd., priority 2004, dated 2010)
Where two headings read alike, the source gives them in different places.

How the values were obtained:
guinea pigs = conditions: guinea pig, in vivo
[1] = system: middle cerebral artery occlusion and reperfusion model; assay: Cerebral infarction model: middle cerebral artery occlusion and reperfusion (infarct area, neurological symptoms, motor function); type: in vivo, rats (Crj: Wistar strain); set-up: Improvement of neurological symptoms* (total score): scale not given here; conditions: rats, average of 10 animals; for Improvement of neurological symptoms* (total score) / Improvement of motor function (time stayed on rotor rod: seconds): single i.v. dose 3 mg/kg; for Improvement of neurological symptoms* (total score): 24 hours after occlusion, total score per Table 4, smaller = greater effect; for Improvement of motor function (time stayed on rotor rod: seconds): rotor rod 14 rotations per minute, maximum 1 minute; for Cerebral infarction reduction rate (%): single intravenous dose 3 mg/kg immediately before reperfusion, vs physiological saline group, bigger = greater effect
Experimental: In this example, a cerebral infarction model was prepared using rats in which reperfusion injury was induced by ischemia and then reperfusion of the middle cerebral artery using the obturator method. The efficacy of compounds of the present invention following single-dose intravenous administration at dose of 3 mg/kg was evaluated in terms of infarct area, neurological symptoms and motor function.
In addition, Edaravone (trade name, Mitsubishi Pharma Corporation) was used as a reference compound. The compounds of the present invention were stored in a refrigerator under protection from light, while Edaravone (trade name) was stored at room temperature under protection from light.
Compounds of present invention: 2 mL of physiological saline was added directly to tube containing 3 mg aliquots of a compound of the present invention to dissolve and prepare solutions having a concentration of 3 mg/2 mL. These samples were prepared at the time of use.
Edaravone: Since Edaravone is an injectable solution having a concentration of 30 mg/20 mL, the required amounts were divided up and used.
Rats: Crj: Wistar strain, males, age 7 weeks (Charles River Laboratories Japan, Inc.)
The test compounds were administered in a single dose into the tail vein using a 1 mL syringe and 27 G injection needle immediately before the reperfusion.
The rats were anesthetized by intraperitoneal administration of sodium pentobarbital at dose of 40 mg/kg (Nembutal (trade name), Dainippon Pharmaceutical Co., Ltd.), and a middle cerebral artery occlusion and reperfusion model was prepared in accordance with the method of Koizumi et al. (Non-Patent Document 2). Namely, the animals were warmed to 37° C. and held in the dorsal position while breathing spontaneously. A midline cervical incision was made, and then the right external carotid artery and right internal carotid artery were separated without damaging the vagus nerve. The right common carotid artery and right external carotid artery were ligated, and a suture was attached to the origin of the internal carotid artery in preparation for ligation and maintenance of occlusion following insertion of an obturator into the internal carotid artery. Moreover, a small incision was made in the right common carotid artery, an obturator provided with an approximately 17 mm silicon-coated suture was inserted into the internal carotid artery, and the internal carotid artery was ligated. Two hours after ligation, the obturator was removed under unanesthesia to reperfuse. Furthermore, flexion of the contralateral forelimb was confirmed 30 minutes after occlusion of the middle cerebral artery.
The following neurological symptoms were evaluated 24 hours after occlusion of the middle cerebral artery according to the evaluation method of Petullo et al. (Non-Patent Document 3). Neurological symptoms consisted of flexion of the forelimbs, torso twisting, resistance when pushing on the back of the right or left shoulder (Lateral push), circling, return of the hindlimb to the floor when lifted from the floor (Hindlimb placement), behavior when the head is faced downward on an angle (Inverted angle board) and a locomotor activity test.
Flexion of the forelimbs: flexion of the forelimbs was observed when the animals were lifted up by the tail.
Torso twisting: Torso twisting was observed when the animals were lifted up by the tail.
Lateral push: Resistance was observed when pushing on the back of the right or left shoulder.
Hindlimb placement: The animals were observed as to whether or not the hindlimb immediately returns to the floor after being lifted from the floor when placed on a horizontal floor.
locomotor activity: locomotor activity was observed when the animals were placed in a polycarbonate cage.
The aforementioned tests were scored based on the criteria described in the following documents, followed by calculation of total scores (see Table 4 “Neurological Symptom Evaluation Criteria and Scores”). […]

[2] = system: model of myocardial ischemia-reperfusion injury; assay: Model of myocardial ischemia-reperfusion injury in rats; type: in vivo; conditions: 3 mg/kg i.v. 5 minutes before 5 minutes coronary ligation, 8 rats per group; for Incidence of Ventricular Fibrillation (%) / Incidence of Ventricular Tachycardia (%): monitored 5 minutes after reperfusion; for Mortality Rate (%): then reperfusion
[3] = system: model of myocardial ischemia reperfusion injury; assay: Model of myocardial ischemia-reperfusion injury in dogs; type: in vivo; conditions: 3 mg/kg into the femoral vein 10 minutes before 20 minutes coronary occlusion, then reperfusion
Experimental: In order to confirm the efficacy of compounds of the present invention on myocardial infarction and arrhythmia caused by myocardial infarction, a pharmacological study was conducted using a model of myocardial ischemia reperfusion injury in dogs for the compounds used in Example 1.
Dogs having body weights of approximately 10 kg were anesthetized with pentobarbital (trade name) (30 mg/ml/kg) followed by shaving the surgical site after starting artificial respiration. The femoral vein and femoral artery were separated followed by cannulation. The femoral vein was used as the administration route for the test substances, while the femoral artery was used to measure blood pressure.
Next, after opening the left chest, making an incision in the pericardium and exposing the left ventricle, the left coronary artery was separated. A silk suture was passed through the coronary artery to occlude, followed by the attachment of an electromagnetic flow meter probe for measuring blood flow.
In addition, a pair of ultrasound crystal probes was fixed in position to measure changes in ventricular wall length as a indicator of myocardial contractile force, and indwelling needle was installed for measuring left intraventricular pressure. Compounds of the present invention were administered into the femoral vein at 3 mg/kg (15% physiological saline solution) followed 10 minutes later by occluding the coronary artery for 20 minutes, and subsequently reperfusing the coronary artery. Myocardial contraction following ischemia-reperfusion was compared for each group based on a value of 100 for myocardial contraction prior to ischemic reperfusion. In addition, comparisons were also made with a solvent control group administered only physiological saline.

[4] = system: ouabain-induced arrhythmia model; assay: Ouabain-induced arrhythmia model in guinea pigs; type: in vivo, guinea pigs (Hartley strain); conditions: dose 3 mg/kg i.v. immediately before ouabain infusion 3 μg/0.1 ml/min
Excerpt: After guinea pigs (Hartley strain, age 6 weeks) were anesthetized with urethane, induction electrodes were attached to the hind limbs and fore limbs, and standard 2-lead electrocardiograms were monitored with an animal electrocardiogram analysis system (ECG-01, Japan Energy). After confirming that the waveforms of the electrocardiogram and heart rate were within the normal range, an incision was made in the epidermis of the neck followed by inserting a breathing tube into the trachea and cannulating a polyethylene tube into the left external jugular vein and left common carotid artery.
Immediately after administering a compound of the present invention dissolved in a physiological saline solution into the right external jugular vein, ouabain was continuously infused at 3 μg/0.1 ml/min through the cannulated polyethylene tube into the left external jugular vein using a syringe pump (Atom Syringe Pump 1235 (trade name), Atom Medical Corporation).
In addition, the polyethylene tube cannulated in the left common carotid artery was connected to a pressure transducer (P23XL, Gould Electronics), and fed to a pressure processor signal conditioner (TA-11, Gould Electronics) to record blood pressure and heart rate on a thermal plate recorder.
The results were assessed by comparing the dose (μg/kg) of ouabain administered until the appearance of arrhythmia and occurrence of cardiac arrest (arrhythmia is not induced even if a large dose of ouabain is administered if antiarrhythmic effects are high). Furthermore, a solvent dose group (administered only physiological saline in an amount equal to that of the test drug groups), and a positive control group administered a typical antiarrhythmic disopyramide phosphate (physiological saline solution), were also provided.

SMILES | Occurrence of Arrhythmia (guinea pigs; 3 mg/kg) | Occurrence of cardiac arrest (guinea pigs; 3 mg/kg) | Occurrence of Arrhythmia (guinea pigs; 10 mg/kg) | Occurrence of cardiac arrest (guinea pigs; 10 mg/kg) | Improvement of neurological symptoms* (total score) [1] | Improvement of motor function (time stayed on rotor rod: seconds) [1] | Cerebral infarction reduction rate (%) [1] | Incidence of Ventricular Fibrillation (%) [2] | Incidence of Ventricular Tachycardia (%) [2] | Mortality Rate (%) [2] | Myocardial Contraction (%) (Based on a value of 100% for prior to ischemia-reperfusion) [3] | Ouabain (μg/kg) administered until Cardiac arrest [4] | Ouabain (μg/kg) administered until appearance of Arrhythmia [4]
C[N+](C)(C)CCOc1ccc(O)c(O)c1C(=O)[O-] [Compound 33] | No | No | No | No | 5.90 | 52.1 s | 52.6% | 12.5% | 50.0% | 0% | 82% | 239 µg/kg | 171 µg/kg
COc1ccc(C(=O)[O-])cc1OCC[N+](C)(C)C [Compound 39] | No | No | No | No | 6.80 | 42.4 s | 37.8% | 12.5% | 62.5% | 12.5% | 74% | 229 µg/kg | 165 µg/kg
C[N+](C)(C)CC(O)Oc1ccc(O)c(C(=O)[O-])c1 (stereo not drawn) [Compound 56] | No | No | No | No | 6.55 | 45.4 s | 40.7% | 12.5% | 62.5% | 25.0% | 71% | 244 µg/kg | 172 µg/kg
C[N+](C)(C)CCOc1ccc(S(=O)(=O)[O-])cc1 [Compound 60] | No | No | No | No | 6.65 | 44.2 s | 39.0% | 25.0% | 62.5% | 0% | 88% | 243 µg/kg | 170 µg/kg
C[N+](C)(C)CCOc1ccc(O)c(S(=O)(=O)[O-])c1 [Compound 66] | No | No | No | No | 6.35 | 49.6 s | 47.9% | 12.5% | 62.5% | 12.5% | 80% | 237 µg/kg | 168 µg/kg
CC[N+](CC)(CC)CCOc1ccc(S(=O)(=O)[O-])c(O)c1 [Compound 71] | No | No | No | No | 6.30 | 48.8 s | 46.3% | 12.5% | 62.5% | 0% | 72% | 239 µg/kg | 171 µg/kg
